Laboratory results taken from patent US20200323203A1, “SYNERGISTIC PESTICIDAL COMPOSITIONS AND METHODS FOR DELIVERY OF ACTIVE INGREDIENTS” (0903608 B.C. Ltd., priority 2017, published 2020).
Values after ≈ are worked out from the molar mass of the structure shown. Values joined by “and” are separate entries in the source; they are usually repeats but may differ in a detail not shown here. Identical values can stand only once.

What was measured:
[1] = Solubility / effective solubilized concentration in 10% DMSO/90% PDB by HPLC; conditions: aqueous with cosolvent or surfactant or cyclodextrin, kinetic from dmso stock
Fusarium oxysporum = test: Synergistic Growth Inhibition Assay (MIC / FIC index), Fusarium oxysporum; assay type: cell-based; conditions: individual compound alone
Method: (§1) In some embodiments, the synergistic action between the pesticidal active ingredient, and the at least one C6-C10 (or alternatively C11 or C12) saturated or unsaturated aliphatic acid components of the pesticidal compositions according to embodiments of the present disclosure was tested using a Synergistic Growth Inhibition Assay, which is derived from and related to a checkerboard assay as is known in the art for testing of combinations of antimicrobial agents. In the Synergistic Growth Inhibition Assay used in accordance with some embodiments of the present disclosure, multiple dilutions of combinations of pesticidal active ingredient and at least one C6-C10 saturated or unsaturated aliphatic acid agents are tested in individual cells for inhibitory activity against a target pest or pathogenic organism. In one such embodiment, the combinations of pesticidal active ingredient and C6-C10 (or alternatively C11 or C12) saturated or unsaturated aliphatic acid agents may preferably be tested in decreasing concentrations. In a further such embodiment, the combinations of pesticidal active ingredient and C6-C10 (or alternatively C11 or C12) saturated or unsaturated aliphatic acid agents may be tested in increasing concentrations. These multiple combinations of the pesticidal active ingredient and at least one C6-C10 (or alternatively C11 or C12) saturated or unsaturated aliphatic acid agents may be prepared in 96-well microtiter plates. In one such embodiment, the Synergistic Growth Inhibition Assay then comprises rows which each contain progressively decreasing concentrations of the pesticidal active ingredient and one or more C6-C10 (or alternatively C11 or C12) saturated or unsaturated aliphatic acid agents to test for the MIC of the agents in combination at which growth of the target pest or pathogen is inhibited. Thus, each well of the microtiter plate is a unique combination of the two agents, at which inhibitory efficacy of the combination against the target pest or pathogen can be determined.
In one embodiment according to the present disclosure, for each row of microtiter cells in the Synergistic Growth Inhibition Assay, the FIC index is calculated from the lowest concentration of the pesticidal active ingredient and one or more C6-C10 saturated or unsaturated aliphatic acid agents necessary to inhibit growth of a target pest or pathogen. The FIC of each component is derived by dividing the concentration of the agent present in that well of the microtiter plate by the minimal inhibitory concentration (MIC) needed of that agent alone to inhibit growth of the target pest or pathogen. The FIC index is then the sum of these values for both agents in that well of the microtiter plate. The FIC index is calculated for each row as follows:
FICindex=MICa/MICA+MICb/MICB
Fractional inhibitory concentration indices may then used as measure of synergy. […] When the FIC index is equal to 1, the combination is additive.
Then, serial dilutions of these initial compositions in successive wells in the row of the microtiter plate were used to assay the pesticidal composition under the same conditions to determine the concentration of the composition combining the two agents corresponding to the microtiter well in which growth inhibition of the target pest or organism ceases. […]

Botrytis cinerea = test: Synergistic Growth Inhibition Assay (MIC / FIC index), Botrytis cinerea; assay type: cell-based
Method: as §1, with “In one such embodiment, the Synergistic Growth Inhibition Assay then comprises rows which each contain progressively decreasing concentrations of the pesticidal active ingredient and one or more C6-C10 (or alternatively C11 or C12) saturated or unsaturated aliphatic acid agents to test for the MIC of the agents in combination at which growth of the target pest or pathogen is inhibited.” left out
(§2) In one embodiment according to the present disclosure, for each row of microtiter cells in the Synergistic Growth Inhibition Assay, the FIC index is calculated from the lowest concentration of the pesticidal active ingredient and one or more C6-C10 saturated or unsaturated aliphatic acid agents necessary to inhibit growth of a target pest or pathogen. […] The FIC index is calculated for each row as follows: […]

Sclerotinia sclerotiorum = test: Synergistic Growth Inhibition Assay (MIC / FIC index), Sclerotinia sclerotiorum; assay type: cell-based
Method: as §1, with “In one such embodiment, the Synergistic Growth Inhibition Assay then comprises rows which each contain progressively decreasing concentrations of the pesticidal active ingredient and one or more C6-C10 (or alternatively C11 or C12) saturated or unsaturated aliphatic acid agents to test for the MIC of the agents in combination at which growth of the target pest or pathogen is inhibited.” left out
as §2

physchem = conditions: aqueous with cosolvent or surfactant or cyclodextrin, kinetic from dmso stock
[2] = 10% DMSO/90% potato dextrose broth (PDB)
[3] = effective solubilized concentration of working stock solution, DMSO stock diluted 10-fold in PDB, verified by HPLC
[4] = solubility, in 10% DMSO/90% PDB, HPLC

Q: Which solubility [1, 2] does the source give for `CCCC1COC(Cn2cncn2)(c2ccc(Cl)cc2Cl)O1` (centres unmarked) [Propiconazole] here?
A: 0.089 mg/mL (≈ 260 µM)

Q: For `C/C=C/C=C/C(=O)[O-].[K+]` [(2E,4E)-2,4-hexadienoic acid, potassium salt], which “MIC (A) / MIC (B) of the compound used alone” value (from here on “MIC (A) / MIC (B)”) (Fusarium oxysporum; 24 hour incubation) is on record?
A: 625 mg/L

Q: For `CCCCCCCCCC(=O)O` [Decanoic acid, decanoic acid], which “MIC (A) / MIC (B)” value (Fusarium oxysporum; 24 hour incubation) is on record?
A: 250 mg/L

Q: What about the MIC (Botrytis cinerea; Botrytis cinerea, 96 h, Compound B alone, incubation 4 days) of the same molecule?
A: 500 mg/L

Q: For `COC(=O)N(OC)c1ccccc1COc1ccn(-c2ccc(Cl)cc2)n1` [Pyraclostrobin, pyraclostrobin], which solubility [1, 3] is on record?
A: 0.015 mg/mL (≈ 38.7 µM)

Q: And the solubility [1, 4]?
A: 0.0154 mg/mL (≈ 39.7 µM)

Q: What does the source list for `N#Cc1c[nH]cc1-c1cccc2c1OC(F)(F)O2` [Fludioxonil, fludioxonil]?
A: solubility [1, 3]: 0.021 mg/mL (≈ 84.6 µM); solubility [1, 4]: 0.0154 mg/mL (≈ 62 µM)

Q: With `C/C=C(/C)C(=O)O[C@H]1C[C@@H](OC(C)=O)[C@@]2(C)CO[C@H]3[C@H]4O[C@@H]5C[C@@H](c6ccoc6)C(C)=C5[C@@]4(C)[C@H](CC(=O)OC)[C@]1(C)[C@@H]32` [Salannin] as the molecule, how does the MIC (Sclerotinia sclerotiorum; Sclerotinia sclerotiorum, […], Compound A alone, incubation 7 days) read?
A: 500 mg/L

Q: Which results are given for `CO/C=C(/C(=O)OC)c1ccccc1Oc1cc(Oc2ccccc2C#N)ncn1` [Azoxystrobin]?
A: MIC (A) / MIC (B) of the compound used alone (Fusarium oxysporum; incubation period of 48 hours): 75 mg/L and 150 mg/L; MIC (A) / MIC (B) of the compound used alone (Botrytis cinerea; individual compound alone, incubation period of 48 hours): 37.5 mg/L and 75 mg/L; MIC (A) / MIC (B) of the compound used alone (Sclerotinia sclerotiorum; individual compound alone, incubation period of 7 days): 150 mg/L

Q: For `CCCCCCCCCC(=O)[O-].[K+]` [Decanoic acid, potassium salt, decanoic acid, potassium salt], which “MIC (A) / MIC (B)” value (Fusarium oxysporum; 24 hour incubation) is on record?
A: 78.12 mg/L

Q: For `Fc1ccc([C@]2(Cn3cncn3)O[C@H]2c2ccccc2Cl)cc1` (racemic) [Epoxiconazole], which solubility (physchem) is on record?
A: 0.03 mg/mL (≈ 91 µM)

Q: For `CC(C)(C)C(O)(CCc1ccc(Cl)cc1)Cn1cncn1` (centres unmarked) [Tebuconazole], which solubility [1, 2] is on record?
A: 0.45 mg/mL (≈ 1460 µM)

Q: For `CCCCCC(=O)O` [Hexanoic acid, hexanoic acid], which “MIC (A) / MIC (B)” value (Fusarium oxysporum; incubation period of 48 hours) is on record?
A: 156.2 mg/L

Q: With `CCCCCCCCCCCC(=O)O` [Dodecanoic acid, dodecanoic acid] as the molecule, how does the “MIC (B)” value (Botrytis cinerea; Compound B alone, incubation 48 hours) read?
A: 50 mg/L

Q: What about the “MIC (B)” value (Sclerotinia sclerotiorum; Compound B alone, incubation 7 days) of the same molecule?
A: 50 mg/L

Q: For `N#Cc1c(Cl)c(Cl)c(Cl)c(C#N)c1Cl` [Chlorothalonil], which solubility [1, 3] is on record?
A: 0.002 mg/mL (≈ 7.52 µM)

Q: Which solubility [1, 3] does the source give for `COCC(=O)N(c1c(C)cccc1C)C(C)C(=O)OC` (centres unmarked) [Metalaxyl] here?
A: 0.316 mg/mL (≈ 1130 µM)
